US4220587A, “Amino acid derivatives of 6-(2-amino-2-arylacetamido)penicillanic acids” (Mitsubishi Chemical Industries, Limited, priority 1975, dated 1980)
≈ marks a conversion by molar mass, not a printed value. Like-named read-outs stand apart in the source and are kept apart here.

What was measured:
Assay type in all cases: cell-based
Staph. aureus (FDA 209P) = experiment: MIC, agar dilution, Staph. aureus; settings: Staphylococcus aureus, FDA209P, read-out: Minimum Inhibitory Concentration (MIC)
Procedure: (§1) The compounds of this invention were tested for antibacterial activity according to the following procedure. Nutrient broth and nutrient agar were prepared according to the conventional procedure. […] was used as a vehicle. The stock solution was prepared at 100 μg/ml of the test material in the vehicle. Two-fold dilutions were made with the vehicle and then the diluted stock solution was added to a petri dish and solidified by chilling. Test organisms were grown in the nutrient broth for 20 hours at 37° C. The hardened surface was inoculated with a loopful of the test organism solution containing 1×10^6 cells per milliliter and incubated for 20 hours at 37° C. At the end of this period, growth of the organism was observed. […] The following Table 1 summarizes the activity of representative compounds as active antibacterial agents, and compares them with the prior art compounds and the reference drug Sulbenicillin.

E. coli (NIHJ) = experiment: MIC, agar dilution, E. coli; settings: Escherichia coli, read-out: Minimum Inhibitory Concentration (MIC)
Procedure: as §1

[1] = test system: Proteus vulgaris (IFO 3045); experiment: MIC, agar dilution, Proteus vulgaris; settings: read-out: Minimum Inhibitory Concentration (MIC)
Procedure: as §1

[2] = test system: Proteus mirabilis (IFO 3849); experiment: MIC, agar dilution, Proteus mirabilis; settings: read-out: Minimum Inhibitory Concentration (MIC)
Procedure: as §1

[3] = test system: Proteus morgani (IFO 3848); experiment: MIC, agar dilution, Proteus morgani; settings: Morganella morganii, read-out: Minimum Inhibitory Concentration (MIC)
Procedure: as §1

[4] = test system: Klebsiella pneumoniae (ATCC 25955); experiment: MIC, agar dilution, Klebsiella pneumoniae; settings: read-out: Minimum Inhibitory Concentration (MIC)
Procedure: as §1

[5] = test system: Pseudomonas aeruginosa M-12; experiment: MIC, agar dilution, Pseudomonas aeruginosa M-12; settings: ATCC15692, 20 h, read-out: Minimum Inhibitory Concentration (MIC)
Procedure: as §1
^*2 chloramphenicol resistant strain derived from Pseudomonas

[6] = test system: Pseudomonas aeruginosa M-16; experiment: MIC, agar dilution, Pseudomonas aeruginosa M-16; settings: M16, 20 h, read-out: Minimum Inhibitory Concentration (MIC)
Procedure: as §1
^*3 streptomycin, chloramphenicol and mercury resistant strain derive

[7] = test system: Pseudomonas aeruginosa (ATCC 15691); experiment: MIC, agar dilution, Pseudomonas aeruginosa ATCC 15691; settings: read-out: Minimum Inhibitory Concentration (MIC)
Procedure: as §1

[8] = test system: Pseudomonas aeruginosa M-11; experiment: MIC, agar dilution, Pseudomonas aeruginosa M-11; settings: 20 h, read-out: Minimum Inhibitory Concentration (MIC)
Procedure: as §1
^*1 streptomycin resistant strain derived from Pseudomonas aeruginosa

[9] = test system: Salmonella typhimurium (TA 100); experiment: MIC, agar dilution, Salmonella typhimurium; settings: Salmonella enterica, TYPHIMURIUM, 20 h, read-out: Minimum Inhibitory Concentration (MIC)
Procedure: as §1

Pseudomonas aeruginosa = experiment: MIC, agar dilution, Pseudomonas aeruginosa (strain not given); settings: ATCC 15691 / ATCC 15692, 20 h, read-out: Minimum Inhibitory Concentration (MIC)
Procedure: as §1

[10] = Proteus vulgaris, IFO3045, 20 h
[11] = Proteus mirabilis, IFO3849, 20 h
[12] = Klebsiella pneumoniae, ATCC25955, 20 h

SMILES: CC1(C)S[C@@H]2[C@H](NC(=O)[C@H](NC(=O)[C@H]3CCCCN3C(=O)OCc3ccccc3)c3ccc(O)cc3)C(=O)N2[C@H]1C(=O)O [Compound 8]
- MIC (Staph. aureus (FDA 209P); 20 h): 1.25 µg/mL (≈ 2.05 µM)

SMILES: CC1(C)S[C@@H]2[C@H](NC(=O)[C@H](NC(=O)[C@H]3CCCN3)c3ccccc3)C(=O)N2[C@H]1C(=O)O [Compound 1]
- MIC (Staph. aureus (FDA 209P); 20 h): 0.45 µg/mL (≈ 1.01 µM)
- MIC (E. coli (NIHJ); 20 h): 6.2 µg/mL (≈ 13.9 µM)
- MIC [1, 10]: 1.5 µg/mL (≈ 3.36 µM)
- MIC [2, 11]: 1.5 µg/mL (≈ 3.36 µM)
- MIC ([3]; IFO3848, 20 h): 3.1 µg/mL (≈ 6.94 µM)
- MIC [4, 12]: 50 µg/mL (≈ 112 µM)
- MIC [5]: 3.1 µg/mL (≈ 6.94 µM)
- MIC [6]: 3.1 µg/mL (≈ 6.94 µM)
- MIC ([7]; ATCC15691, 20 h): 12.5 µg/mL (≈ 28 µM)

SMILES: Cc1ccc(S(=O)(=O)N(C)[C@H](CC(C)C)C(=O)N[C@@H](C(=O)N[C@@H]2C(=O)N3[C@@H]2SC(C)(C)[C@@H]3C(=O)O)c2ccccc2)cc1 [Compound 23]
- MIC (Staph. aureus (FDA 209P); 20 h): 0.62 µg/mL (≈ 0.983 µM)

SMILES: CC1(C)S[C@@H]2[C@H](NC(=O)[C@H](NC(=O)C3CCCCN3C(N)=O)c3ccccc3)C(=O)N2[C@H]1C(=O)O (stereo partly shown) [Compound 11]
- MIC (Staph. aureus (FDA 209P); 20 h): 0.31 µg/mL (≈ 0.616 µM)

SMILES: CC1(C)S[C@@H]2[C@H](NC(=O)C(c3ccccc3)S(=O)(=O)O)C(=O)N2[C@H]1C(=O)O (stereo partly shown) [sulpenicillin, reference compound]
- MIC (Staph. aureus (FDA 209P); Staph. aureus FDA 209P, nutrient agar, 20 hours at 37° C.): 3.25 µg/mL (≈ 7.84 µM)
- MIC (E. coli (NIHJ); E. coli NIHJ, nutrient agar, 20 hours at 37° C.): 1.25 µg/mL (≈ 3.02 µM)
- MIC ([1]; IFO3045, Proteus vulgaris IFO 3045, nutrient agar, 20 hours at 37° C.): < 3.1 µg/mL
- MIC ([2]; IFO3849, Proteus mirabilis IFO 3849, nutrient agar, 20 hours at 37° C.): < 3.1 µg/mL
- MIC ([3]; IFO3848, Proteus morgani IFO 3848, nutrient agar, 20 hours at 37° C.): < 3.1 µg/mL
- MIC ([4]; ATCC25955, Klebsiella pneumoniae ATCC 25955, nutrient agar, 20 hours at 37° C.): > 100 µg/mL
- MIC [8]: 25 µg/mL (≈ 60.3 µM)
- MIC [5]: 25 µg/mL (≈ 60.3 µM)
- MIC [6]: 25 µg/mL (≈ 60.3 µM)
- MIC ([7]; ATCC15691, P. aeruginosa ATCC 15691, nutrient agar, 20 hours at 37° C.): 50 µg/mL (≈ 121 µM)

SMILES: CC1(C)S[C@@H]2[C@H](NC(=O)[C@H](NC(=O)[C@H]3CCCN3C(=O)OCc3ccccc3)c3ccc(O)cc3)C(=O)N2[C@H]1C(=O)O [Compound 5]
- MIC (Staph. aureus (FDA 209P); 20 h): 2.5 µg/mL (≈ 4.19 µM)

SMILES: Cc1ccc(S(=O)(=O)N(C)C(C)C(=O)N[C@@H](C(=O)N[C@@H]2C(=O)N3[C@@H]2SC(C)(C)[C@@H]3C(=O)O)c2ccccc2)cc1 (stereo partly shown) [Compound 19]
- MIC (Staph. aureus (FDA 209P); 20 h): 0.15 µg/mL (≈ 0.255 µM)
- MIC (E. coli (NIHJ); 20 h): 25 µg/mL (≈ 42.5 µM)
- MIC [1, 10]: 12.5 µg/mL (≈ 21.2 µM)
- MIC [2, 11]: 12.5 µg/mL (≈ 21.2 µM)
- MIC ([3]; IFO3848, 20 h): 12.5 µg/mL (≈ 21.2 µM)
- MIC [9]: 9 µg/mL (≈ 15.3 µM)
- MIC (Pseudomonas aeruginosa): 37 µg/mL (≈ 62.8 µM)

SMILES: CC1(C)S[C@@H]2[C@H](NC(=O)[C@H](NC(=O)[C@H]3CCCCN3)c3ccc(O)cc3)C(=O)N2[C@H]1C(=O)O [Compound 7]
- MIC (Staph. aureus (FDA 209P); 20 h): 1.25 µg/mL (≈ 2.62 µM)
- MIC (E. coli (NIHJ); 20 h): 25 µg/mL (≈ 52.5 µM)
- MIC [1, 10]: < 6.2 µg/mL
- MIC [2, 11]: 9 µg/mL (≈ 18.9 µM)
- MIC ([3]; IFO3848, 20 h): < 6.2 µg/mL
- MIC [4, 12]: 9 µg/mL (≈ 18.9 µM)

SMILES: CC1(C)S[C@@H]2[C@H](NC(=O)[C@H](NC(=O)[C@H]3CCN3)c3ccc(O)cc3)C(=O)N2[C@H]1C(=O)O [Compound 29]
- MIC (Staph. aureus (FDA 209P); 20 h): 5 µg/mL (≈ 11.1 µM)
- MIC (E. coli (NIHJ); 20 h): 18.7 µg/mL (≈ 41.7 µM)
- MIC [1, 10]: 3.1 µg/mL (≈ 6.91 µM)
- MIC [2, 11]: 3.1 µg/mL (≈ 6.91 µM)
- MIC ([3]; IFO3848, 20 h): 3.1 µg/mL (≈ 6.91 µM)
- MIC (Pseudomonas aeruginosa): 37.5 µg/mL (≈ 83.6 µM)

SMILES: CN[C@H](C)C(=O)N[C@@H](C(=O)N[C@@H]1C(=O)N2[C@@H]1SC(C)(C)[C@@H]2C(=O)O)c1ccc(O)cc1 [Compound 21]
- MIC (Staph. aureus (FDA 209P); 20 h): 1.87 µg/mL (≈ 4.15 µM)
- MIC (E. coli (NIHJ); 20 h): 12.3 µg/mL (≈ 27.3 µM)
- MIC [1, 10]: 4.7 µg/mL (≈ 10.4 µM)
- MIC [2, 11]: 6.2 µg/mL (≈ 13.8 µM)
- MIC ([3]; IFO3848, 20 h): 3.1 µg/mL (≈ 6.88 µM)

SMILES: CC(C)C[C@H](C(=O)N[C@@H](C(=O)N[C@@H]1C(=O)N2[C@@H]1SC(C)(C)[C@@H]2C(=O)O)c1ccccc1)N(C)C(=O)OCc1ccccc1 [Compound 24]
- MIC (Staph. aureus (FDA 209P); 20 h): 0.62 µg/mL (≈ 1.02 µM)
- MIC (E. coli (NIHJ); 20 h): 50 µg/mL (≈ 81.9 µM)
- MIC [1, 10]: 100 µg/mL (≈ 164 µM)
- MIC [2, 11]: 100 µg/mL (≈ 164 µM)
- MIC ([3]; IFO3848, 20 h): 100 µg/mL (≈ 164 µM)
- MIC [9]: < 6.25 µg/mL
- MIC (Pseudomonas aeruginosa): 100 µg/mL (≈ 164 µM)

SMILES: CC1(C)S[C@@H]2[C@H](NC(=O)[C@H](NC(=O)[C@H]3CCN3)c3ccccc3)C(=O)N2[C@H]1C(=O)O [Compound 28]
- MIC (Staph. aureus (FDA 209P); 20 h): 3.75 µg/mL (≈ 8.67 µM)
- MIC (E. coli (NIHJ); 20 h): 50 µg/mL (≈ 116 µM)
- MIC [1, 10]: 6.2 µg/mL (≈ 14.3 µM)
- MIC [2, 11]: 6.2 µg/mL (≈ 14.3 µM)
- MIC ([3]; IFO3848, 20 h): 12.5 µg/mL (≈ 28.9 µM)
- MIC (Pseudomonas aeruginosa): 25 µg/mL (≈ 57.8 µM)

SMILES: Cc1ccc(S(=O)(=O)N(C)CC(=O)N[C@@H](C(=O)N[C@@H]2C(=O)N3[C@@H]2SC(C)(C)[C@@H]3C(=O)O)c2ccccc2)cc1 [Compound 22]
- MIC (Staph. aureus (FDA 209P); 20 h): 0.31 µg/mL (≈ 0.539 µM)
- MIC (E. coli (NIHJ); 20 h): 25 µg/mL (≈ 43.5 µM)
- MIC [1, 10]: 25 µg/mL (≈ 43.5 µM)
- MIC [2, 11]: 23 µg/mL (≈ 40 µM)
- MIC ([3]; IFO3848, 20 h): 12.5 µg/mL (≈ 21.8 µM)
- MIC (Pseudomonas aeruginosa): 25 µg/mL (≈ 43.5 µM)

SMILES: CC1(C)S[C@@H]2[C@H](NC(=O)[C@H](NC(=O)[C@H]3CCCCN3C(=O)OCc3ccccc3)c3ccccc3)C(=O)N2[C@H]1C(=O)O [Compound 9]
- MIC (Staph. aureus (FDA 209P); 20 h): 0.62 µg/mL (≈ 1.04 µM)
